From article PMC10353187, “Discovery of a new potent oxindole multi-kinase inhibitor among a series of designed 3-alkenyl-oxindoles with ancillary carbonic anhydrase inhibitory activity as antiproliferative agents” (BMC Chemistry, 2023)

Assays:
Test in all cases: NCI-60 single-dose antiproliferative assay (SRB)
Assay type in all cases: cell-based
786-0 = conditions: Homo sapiens; 10 μM single dose; 786-0, Renal cancer; read-out: Cell Growth inhibition Percent
In short: (§1)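 The tumour lines, maintained in RPMI 1640 supplemented with 5% fetal bovine serum, received each compound at one concentration (10 µM) for 48 h at 37 °C. Cell mass was quantified by SRB binding (515 nm) and expressed as percentage growth inhibition.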

A498 = conditions: Homo sapiens; 10 μM single dose; A498, Renal cancer; read-out: Cell Growth inhibition Percent
In short: as §1

A549/ATCC = conditions: Homo sapiens, 10 μM single dose, Non-small cell lung cancer, read-out: Cell Growth inhibition Percent
In short: as §1

MALME-3 M = conditions: Homo sapiens, 10 μM single dose, Melanoma, read-out: Cell Growth inhibition Percent
In short: as §1

OVCAR-5 = conditions: Homo sapiens; 10 μM single dose; OVCAR-5, Ovarian Cancer; read-out: Cell Growth inhibition Percent
In short: as §1

SF-539 = conditions: Homo sapiens; 10 μM single dose; SF-539, CNS cancer; read-out: Cell Growth inhibition Percent
In short: as §1

SN12C = conditions: Homo sapiens, 10 μM single dose, Renal cancer, read-out: Cell Growth inhibition Percent
In short: as §1

SW-620 = conditions: Homo sapiens; 10 μM single dose; SW-620, Colon cancer; read-out: Cell Growth inhibition Percent
In short: as §1

TK-10 = conditions: Homo sapiens; 10 μM single dose; TK-10, Renal cancer; read-out: Cell Growth inhibition Percent
In short: as §1

BT-549 = conditions: Homo sapiens; 10 μM single dose; BT-549, Breast cancer; read-out: Cell Growth inhibition Percent
In short: as §1

UACC-62 = conditions: Homo sapiens; 10 μM single dose; UACC-62, Melanoma; read-out: Cell Growth inhibition Percent
In short: as §1

NCI-H322M = conditions: Homo sapiens, 10 μM single dose, Non-small cell lung cancer, read-out: Cell Growth inhibition Percent
In short: as §1

SK-MEL-2 = conditions: Homo sapiens; 10 μM single dose; SK-MEL-2, Melanoma; read-out: Cell Growth inhibition Percent
In short: as §1

K-562 = conditions: Homo sapiens, K562; 10 μM single dose; K-562, Leukemia; read-out: Cell Growth inhibition Percent
In short: as §1

NCI-H460 = conditions: Homo sapiens; 10 μM single dose; NCI-H460, Non-small cell lung cancer; read-out: Cell Growth inhibition Percent
In short: as §1

MOLT-4 = conditions: Homo sapiens; 10 μM single dose; MOLT-4, Leukemia; read-out: Cell Growth inhibition Percent
In short: as §1

CCRF-CEM = conditions: Homo sapiens, 10 μM single dose, Leukemia, read-out: Cell Growth inhibition Percent
In short: as §1

RPMI-8226 = conditions: Homo sapiens; 10 μM single dose; RPMI-8226, Leukemia; read-out: Cell Growth inhibition Percent
In short: as §1

| Structure (SMILES) | inhibition at 10 µM (786-0) [%] | inhibition at 10 µM (A498) [%] | inhibition at 10 µM (A549/ATCC) [%] | inhibition at 10 µM (MALME-3 M) [%] | inhibition at 10 µM (OVCAR-5) [%] | inhibition at 10 µM (SF-539) [%] | inhibition at 10 µM (SN12C) [%] | inhibition at 10 µM (SW-620) [%] | inhibition at 10 µM (TK-10) [%] | inhibition at 10 µM (BT-549) [%] | inhibition at 10 µM (UACC-62) [%] | inhibition at 10 µM (NCI-H322M) [%] | inhibition at 10 µM (SK-MEL-2) [%] | inhibition at 10 µM (K-562) [%] | inhibition at 10 µM (NCI-H460) [%] | inhibition at 10 µM (MOLT-4) [%] | inhibition at 10 µM (CCRF-CEM) [%] | inhibition at 10 µM (RPMI-8226) [%] |
| --- | --- | --- | --- | --- | --- | --- | --- | --- | --- | --- | --- | --- | --- | --- | --- | --- | --- | --- |
| O=C1Nc2ccccc2C1=CNc1ccc(C(=O)O)cc1 [Compound 4c, 4-{[(2-Oxoindolin-3-ylidene)methyl]amino}benzoic acid] | 4.08 | 20.1 | 9.11 | 0.23 | 0.03 | 2.79 | 24.8 | 4.95 | 19.1 |  |  |  |  |  |  |  |  |  |
| NS(=O)(=O)c1nnc(NC=C2C(=O)Nc3ccccc32)s1 [Compound 4d, 5-{[(2-Oxoindolin-3-ylidene)methyl]amino}-1,3,4-thiadiazole-2-sulfonamide] | 1.8 |  |  |  |  | 3.69 |  |  |  | 1.21 | 3.05 |  |  |  |  |  |  |  |
| NS(=O)(=O)N/C=C1/C(=O)Nc2ccccc21 [Compound 5, 3-(sulfamidmethylene)indoline-2-one] |  |  |  |  |  |  |  |  |  | 0.96 | 4.35 | 3.18 | 2.36 |  |  |  |  |  |
| O=C1Nc2ccccc2C1=CNc1ccc(C(=O)Nc2ccc(S(=O)(=O)Nc3ncccn3)cc2)cc1 [Compound 9b, 4-{[(2-Oxoindolin-3-ylidene)methyl]amino}-N-{4-[N-(pyrimidin-2-yl)sulfamoyl]phenyl}benzamide] | 4.99 | 9.11 |  | 2.09 |  | 5.04 | 20.5 |  |  | 27.1 | 7.84 |  |  | 3.5 | 1.64 |  |  |  |
| NS(=O)(=O)c1ccc(NCc2ccc(NC=C3C(=O)Nc4ccccc43)cc2)cc1 [Compound 11a, 4-{[4-({[2-Oxoindolin-3-ylidene]methyl}amino)benzyl]amino}benzenesulfonamide] | 0.56 |  | 4.86 | 3.16 |  |  | 22.9 |  |  |  |  |  |  | 0.06 |  | 1.28 |  |  |
| O=C1Nc2ccccc2C1=CNc1ccc(CNc2ccc(S(=O)(=O)Nc3ncccn3)cc2)cc1 [Compound 11b, 4-{[4-({[2-Oxoindolin-3-ylidene]methyl}amino)benzyl]amino}-N-(pyrimidin-2-yl)benzenesulfonamide] |  |  |  |  |  |  |  | 4.6 |  | 6.46 | 3.27 |  |  | 32.8 | 4.26 |  | 25.4 | 28.9 |
| O=C1Nc2ccccc2C1=CNc1ccc(C(=O)C=CNc2nccs2)cc1 [Compound 13c, 3-{[(4-{3-[Thiazol-2-ylamino]acryloyl}phenyl)amino]methylene}indolin-2-one] |  |  | 21.6 |  |  | 1.96 | 11.6 |  |  | 13.6 |  |  |  | 24.8 | 7.04 |  | 12.1 | 35 |
| O=C(Nc1ccc(NC=C2C(=O)Nc3ccccc32)cc1)Nc1nccs1 [Compound 15c, 1-{4-[((2-Oxoindolin-3-ylidene)methyl)amino]phenyl}-3-(thiazol-2-yl)urea] | 47.1 | 108 | 43.4 | 53.1 | 39.6 | 66.4 | 32 | 78.6 | 24.3 |  | 75.1 | 47.2 | 37.9 | 82.7 | 83.2 | 67.8 |  | 16.4 |
